Test results: patent US12297190B2, “Modulators of STING (stimulator of interferon genes)” (PFIZER INC., priority 2019, dated 2025)

Molecular target: R232-STING (Homo sapiens, UniProt Q86WV6, H232R)
Test: biochemical

Sequence of R232-STING (Q86WV6 155-341 H232R): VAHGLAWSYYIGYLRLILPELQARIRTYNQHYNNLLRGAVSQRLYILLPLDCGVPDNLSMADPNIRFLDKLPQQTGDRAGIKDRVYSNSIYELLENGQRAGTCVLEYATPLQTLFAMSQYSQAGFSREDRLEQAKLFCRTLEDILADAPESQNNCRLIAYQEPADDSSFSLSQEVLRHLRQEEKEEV

SMILES	Ki [nM]
CCn1nc(C)cc1-c1nnc(-c2cc(C(N)=O)cc3c2cnn3C[C@H]2CCCCN2C)[nH]1 [ZZZ032, 4-[5-(1-ethyl-3-methyl-1H-pyrazol-5-yl)-4H-1,2,4-triazol-3-yl]-1-{[(2R)-1-methylpiperidin-2-yl]methyl}-1H-indazole-6-carboxamide]	967
CCn1nc(C)c(O)c1-c1nc(-c2nc(C(N)=O)cc3[nH]ncc23)n(C)n1 [ZZZ084, 4-[3-(1-ethyl-4-hydroxy-3-methyl-1H-pyrazol-5-yl)-1-methyl-1H-1,2,4-triazol-5-yl]-1H-pyrazolo[4,3-c] pyridine-6-carboxamide]	> 90.1
CCn1nc(C)cc1-c1nnc(-c2cc(C(N)=O)cc3c2cnn3CC2CC3(CCNC3)C2)[nH]1 (stereo not drawn) [ZZZ070, 1-[(6-azaspiro[3.4]octan-2-yl)methyl]-4-[5-(1-ethyl-3-methyl-1H-pyrazol-5-yl)-4H-1,2,4-triazol-3-yl]-1H-indazole-6-carboxamide]	> 990
CCn1nc(C)cc1-c1nnc(-c2cc(C(N)=O)cc3c2cnn3C[C@H]2[C@@H]3CN(C(C)C)C[C@@H]32)[nH]1 [ZZZ017, 4-[5-(1-ethyl-3-methyl-1H-pyrazol-5-yl)-4H-1,2,4-triazol-3-yl]-1-{[(1R,5S,6r)-3-(propan-2-yl)-3-azabicyclo[3.1.0]hexan-6-yl]methyl}-1H-indazole-6-carboxamide]	> 990
CCn1nc(C)cc1-c1n[nH]c(-c2nc(C(N)=O)cc3cn[nH]c23)n1 [ZZZ010, 7-[3-(1-ethyl-3-methyl-1H-pyrazol-5-yl)-1H-1,2,4-triazol-5-yl]-1H-pyrazolo[3,4-c]pyridine-5-carboxamide]	> 990
CCn1nc(C)cc1-c1nnc(-c2cc(C(N)=O)cc3c2cnn3CCCCN(C)C)[nH]1 [ZZZ034, 1-[4-(dimethylamino)butyl]-4-[5-(1-ethyl-3-methyl-1H-pyrazol-5-yl)-4H-1,2,4-triazol-3-yl]-1H-indazole-6-carboxamide]	> 990
CCn1nc(CO)cc1-c1cnc(-c2cc(C(N)=O)cc3c2cnn3C)[nH]1 [ZZZ122, 4-{5-[1-ethyl-3-(hydroxymethyl)-1H-pyrazol-5-yl]-1H-imidazol-2-yl}-1-methyl-1H-indazole-6-carboxamide]	> 900

The remaining lines, values ahead:

Ki [nM]	SMILES
623	CCn1nc(C)cc1-c1n[nH]c(-c2cc(C(N)=O)cc3c2cnn3CCN2CC3CCC3C2)n1 (stereo not drawn) [ZZZ110, 1-[2-(3-azabicyclo[3.2.0]heptan-3-yl)ethyl]-4-[3-(1-ethyl-3-methyl-1H-pyrazol-5-yl)-1H-1,2,4-triazol-5-yl]-1H-indazole-6-carboxamide]
969	CCn1nc(C)cc1-c1n[nH]c(-c2cc(C(N)=O)cc3c2cnn3CCN2CCO[C@@H](CO)C2)n1 (racemic) [ZZZ092, 4-[3-(1-ethyl-3-methyl-1H-pyrazol-5-yl)-1H-1,2,4-triazol-5-yl]-1-{2-[(2R)-2-(hydroxymethyl)morpholin-4-yl]ethyl}-1H-indazole-6-carboxamide]
> 990	CCn1nc(C)cc1-c1nnc(-c2cc(C(N)=O)cc3c2cnn3CCN2CC(C)C2)[nH]1 [ZZZ036, 4-[5-(1-ethyl-3-methyl-1H-pyrazol-5-yl)-4H-1,2,4-triazol-3-yl]-1-[2-(3-methylazetidin-1-yl)ethyl]-1H-indazole-6-carboxamide]
842	CCn1nc(C)cc1-c1n[nH]c(-c2cc(C(N)=O)cc3c2cnn3CCN2CC(O)C2)n1 [ZZZ100, 4-[3-(1-ethyl-3-methyl-1H-pyrazol-5-yl)-1H-1,2,4-triazol-5-yl]-1-[2-(3-hydroxyazetidin-1-yl)ethyl]-1H-indazole-6-carboxamide]
842	CCn1nc(C)cc1-c1n[nH]c(-c2cc(C(N)=O)cc3c2cnn3CCN2CC[C@@H](OC)C2)n1 [ZZZ111, 4-[3-(1-ethyl-3-methyl-1H-pyrazol-5-yl)-1H-1,2,4-triazol-5-yl]-1-{2-[(3R)-3-methoxypyrrolidin-1-yl]ethyl}-1H-indazole-6-carboxamide]
